According to article PMC10633902, “Investigating the antimicrobial activity, cytotoxicity, and action mechanism of acylated and amidated derivatives of AurH1 antifungal peptide” (BMC Microbiology, 2023):
≈ marks a conversion by molar mass, not a printed value. Like-named read-outs stand apart in the source and are kept apart here. No end group written: not given here.

How the values were obtained:
[1] = system: Aspergillus flavus (ATCC 24,109); assay: microbe, parasite or virus in culture; format: cell-based
Experimental: (§1) The human skin fibroblast (Hu02 cell) and human breast cancer cells (MDA-MB-231 and SKBR-3 cell lines) were purchased from the National Cell Bank of Iran, Pasture Institute of Ira) for cytotoxicity test. Antimicrobial effects of the Ac-AurH1, AurH1-NH2, and AurH1 against the selected bacteria and fungi were conducted using a standard serial dilution method in a 96-well microplate. For this purpose, the desired fungal and bacterial strains were grown overnight at 37 °C (Some of the fungi were incubated at 25 °C) in related media (SDA for fungi and MHA for bacteria). […] Next, serially diluted synthetic peptides in a volume of 100 μL were added to the microtitre plates, followed by 100 μL of bacteria and fungi to give a final inoculum of 5 × 10^5 colony-forming units (CFU)/ml (a 0.5 McFarland standard inoculum). […] In this test, penicillin and streptomycin antibiotics for bacteria and fluconazole, nystatin, and amphotericin B for fungal strains were used as antibiotic control. […] All tests were repeated three times independently.

[2] = system: Aspergillus niger (ATCC 9142); assay: microbe, parasite or virus in culture; format: cell-based
Experimental: as §1

[3] = system: Candida albicans (ATCC 10,231); assay: microbe, parasite or virus in culture; format: cell-based
Experimental: as §1

[4] = system: Candida glabrata (ATCC 90,030); assay: microbe, parasite or virus in culture; format: cell-based
Experimental: as §1

[5] = system: Candida krusei (ATCC 28,870); assay: microbe, parasite or virus in culture; format: cell-based
Experimental: as §1

[6] = system: C. albicans; assay: Killing kinetic assay (time of killing); format: cell-based, Candida albicans; conditions: 1X MIC concentration
[7] = system: Escherichia coli (ATCC 25,922); assay: microbe, parasite or virus in culture; format: cell-based
Experimental: as §1

[8] = system: Staphylococcus aureus (ATCC 25,923); assay: microbe, parasite or virus in culture; format: cell-based
Experimental: as §1

[9] = system: Human skin fibroblast (Hu02 cells); format: cell-based
Experimental: Toxicity of peptides on Human skin fibroblast (Hu02 cells) and two human breast cancer cell lines (MDA-MB-231 and SKBR3 cell lines) measured by an MTT assay. At first, cell lines with a density of 1 × 10^5 cells were cultured in the wells of 96-well plates for 24 h under standard conditions (37 °C temperature, 5% CO2 atmosphere with 95% relative humidity). After that, the old medium was replaced with fresh medium (with 10% FBS) containing different peptide concentrations, and the cells were incubated for 24 h. A medium without peptide was used as a negative control. After 24 h of incubation and washing the wells with PBS, the medium (containing 10% FBS) was replaced with fresh medium containing 10% MTT solution (freshly prepared 5 mg/ml MTT in PBS), and the plate was incubated for four h in 5% CO2, at 37 °C. Next, the medium was removed from the wells, and 100 µL DMSO was added. Afterward, the plate was shaken to dissolve Formazan crystals. Finally, by a microplate reader (STAT FAX 2100, BioTek, Winooski, USA), the absorbance values were measured at a wavelength of 595 nm. The percentage of toxicity was calculated as follows: […]

[10] = system: human red blood cells; format: cell-based; conditions: 1 h
Experimental: A hemolytic assay was performed to investigate the effects of peptides on human red blood cells. First, 5 ml of fresh human blood was taken from a volunteer. After that, 20% (v/v) suspension of human erythrocytes was prepared and diluted in PBS (1:20). Next, 100 µL of this blood suspension was added in triplicate to 100 µL of a 2-fold serial dilution series of the peptide in a 96‐well plate. 1% Triton-X 100 was used as a positive control to lyse 100% of RBCs, and sterile 0.9% NaCl solution was used as a negative control. Then the plates were incubated at 37 °C for 1 h and centrifuged at 3500 rpm for 10 min. Next, 100 µL of the supernatant was transferred to a new 96-well plate to measure the absorbance at 414 nm using a microplate reader (STAT FAX 2100, BioTek, Winooski, USA). Finally, the percentage of hemolysis was calculated as follows: […]

[11] = system: C. albicans; format: cell-based, Candida albicans
Experimental: (§2) The microbial inoculum was prepared based on broth micro-dilution assay to generate a concentration of fungi corresponding to 5 × 10^5 CFU/mL. […] The obtained results were analyzed in terms of the fractional inhibitory concentration index (FIC): [drawing 4] AMPs and antibiotics are antagonistic if FIC ≥ 4.0, indifference if > 1 FIC < 4.0, additive if > 0.5 FIC ≤ 1, and synergism if FIC ≤ 0.5.

[12] = system: C. glabrata; format: cell-based, Candida glabrata
Experimental: as §2

[13] = system: C. krusei; format: cell-based, Candida krusei
Experimental: as §2

[14] = system: C. albicans; assay: Ergosterol binding assay (MIC in presence and absence of ergosterol); format: cell-based, Candida albicans
Experimental: An ergosterol binding assay was performed to measure the binding potency of peptides to fungal membrane sterols. For this purpose, the ergosterol was dissolved in DMSO and Tween-20, it was heated to increase the solubility of the formed emulsion and diluted in an SDB medium at a concentration of […] and incubated at 37 °C for 1 h. After that, MIC of the AurH1, Ac-AurH1, and AurH1-NH2 peptides was measured by the micro-dilution method in the presence and absence of ergosterol in different concentrations ([…]) against C. albicans.

[15] = system: C. albicans; assay: Effect of salts and human serum on antimicrobial activity (MIC); format: cell-based, Candida albicans
Experimental: To evaluate the effect of salts and human serum on the antimicrobial activity of the AurH1-NH2 and AurH1 peptides, their antimicrobial activity (MICs values) against C. albicans under different conditions containing salt and human serum was determined. Therefore, mid-logarithmic phase yeasts diluted to 5 × 10^5 CFU/ml in SDB were added to related media containing different concentrations of human serum (10%, 20%, and 30%) and salts (150 mM NaCl and 1mM MgCl2), and incubated at 37 °C for 24 h.

[16] = system: C. albicans; assay: FE-SEM of C. albicans surface after peptide treatment; format: cell-based, Candida albicans; conditions: 0.5 X MIC
Experimental: At first, C. albicans were cultured in broth media. Next, yeasts were deposited by centrifugation (4000 rpm for 1 min) and washed (Three times) with PBS (pH 7.4). […] The samples were centrifuged at 4000 rpm for 1 min, washed three times in PBS, and put on the glass slides (1cm2). Subsequently, cells were dehydrated with ethanol gradient (at 10, 30, 60, 70, and 90%). After that, the dehydrated cells were dissolved in 100% ethanol for 15 min and dried at room temperature (25 °C). Finally, C. albicans cells were coated with gold nanoparticles by an automatic sputter coater and observed using an FE-SEM instrument (JSM-7610 F, JEOL Co., Japan and MIRA3, TESCAN Co., Czech).

[17] = A. flavus, mean of 3 independent tests
[18] = A. niger, mean of 3 independent tests
[19] = C. albicans, mean of 3 independent tests
[20] = C. glabrata, mean of 3 independent tests
[21] = C. krusei, mean of 3 independent tests
[22] = in combination with amphotericin B (Amph)
[23] = in combination with fluconazole (Flu)
[24] = in combination with nystatin (Nys)

OC(Cn1cncn1)(Cn1cncn1)c1ccc(F)cc1F [Flu, Fluconazole, reference compound]
MIC ([1]; Aspergillus flavus, ATCC24, A. flavus, mean of 3 independent tests, read-out: MIC): > 1000 µg/mL
MBC ([2]; Aspergillus niger, ATCC9142, A. niger, mean of 3 independent tests): > 1000 µg/mL
MIC ([2]; Aspergillus niger, ATCC9142, A. niger, mean of 3 independent tests, read-out: MIC): 500 µg/mL (≈ 1630 µM)
MBC ([3]; Candida albicans, ATCC10, C. albicans, mean of 3 independent tests): 500 µg/mL (≈ 1630 µM)
MIC ([3]; Candida albicans, ATCC10, C. albicans, mean of 3 independent tests, read-out: MIC): 62.5 µg/mL (≈ 204 µM)
MBC ([4]; Nakaseomyces glabratus, ATCC90, C. glabrata, mean of 3 independent tests): 500 µg/mL (≈ 1630 µM)
MIC ([4]; Nakaseomyces glabratus, ATCC90, C. glabrata, mean of 3 independent tests, read-out: MIC): 125 µg/mL (≈ 408 µM)
MBC ([5]; Pichia kudriavzevii, ATCC28, C. krusei, mean of 3 independent tests): 250 µg/mL (≈ 816 µM)
MIC ([5]; Pichia kudriavzevii, ATCC28, C. krusei, mean of 3 independent tests, read-out: MIC): 62.5 µg/mL (≈ 204 µM)
time to kill all C. albicans (maximum fungicidal effect) [6]: could not eliminate C. albicans after 24 h

C[C@@H]1[C@H](O)[C@@H](C)/C=C/C=C/CC/C=C/C=C/C=C/C=C/C(O[C@H]2O[C@H](C)[C@@H](O)[C@H](N)[C@@H]2O)CC2O[C@](O)(CC(O)C(O)CCC(O)CC(O)CC(O)CC(=O)O[C@H]1C)CC(O)C2C(=O)O (some centres unmarked) [Nys, Nystatin, reference compound]
MBC (MFC) [1, 17]: 62.50 µg/mL (≈ 67.5 µM)
MIC [1, 17]: 7.81 µg/mL (≈ 8.43 µM)
MBC (MFC) [2, 18]: 125 µg/mL (≈ 135 µM)
MIC [2, 18]: 31.25 µg/mL (≈ 33.7 µM)
MBC (MFC) [3, 19]: 3.90 µg/mL (≈ 4.21 µM)
MIC [3, 19]: 1.95 µg/mL (≈ 2.11 µM)
MBC (MFC) [4, 20]: 3.9 µg/mL (≈ 4.21 µM)
MIC [4, 20]: 3.9 µg/mL (≈ 4.21 µM)
MBC (MFC) [5, 21]: 3.90 µg/mL (≈ 4.21 µM)
MIC [5, 21]: 1.95 µg/mL (≈ 2.11 µM)
time to kill all C. albicans (maximum fungicidal effect) [6]: 8 h

[H]/N=C(/N)N[C@H]1[C@H](O)[C@@H](O)[C@H](O[C@@H]2O[C@@H](C)[C@](O)(C=O)[C@H]2O[C@@H]2O[C@@H](CO)[C@H](O)[C@@H](O)[C@@H]2NC)[C@@H](N/C(N)=N\[H])[C@@H]1O [Strep, Streptomycin, reference compound]
MIC ([7]; Escherichia coli, ATCC25, E. coli, mean of 3 independent tests, read-out: MIC): 3.9 µg/mL (≈ 6.71 µM)
MIC ([8]; Staphylococcus aureus, ATCC25, S. aureus, mean of 3 independent tests, read-out: MIC): 62.5 µg/mL (≈ 107 µM)

Ac-WFKIIKK [Ac-AurH1, Ac-WFKIIKK]
MIC ([1]; ATCC 24, 24 h): > 1000 µg/mL
MIC ([2]; ATCC 9142, 24 h): > 1000 µg/mL
MBC (MFC) ([3]; ATCC 10, 24 h): > 1000 µg/mL
MIC ([3]; ATCC 10, 24 h): 250 µg/mL
MIC ([4]; ATCC 90, 24 h): > 1000 µg/mL
MBC (MFC) ([5]; ATCC 28, 24 h): > 1000 µg/mL
MIC ([5]; ATCC 28, 24 h): 500 µg/mL
MIC ([7]; ATCC 25, 24 h): > 1000 µg/mL
MIC ([8]; ATCC 25, 24 h): > 1000 µg/mL
toxicity [9]: more than 10%
HC50 (concentration that lyses 50% of red blood cells) [10]: 10,127 µg/ml

H-WFKIIKK-NH2 [AurH1-NH2, WFKIIKK-NH2]
MBC (MFC) ([1]; ATCC 24, 24 h): 1000 µg/mL
MIC ([1]; ATCC 24, 24 h): 250 µg/mL
MBC (MFC) ([2]; ATCC 9142, 24 h): 500 µg/mL
MIC ([2]; ATCC 9142, 24 h): 125 µg/mL
MBC (MFC) ([3]; ATCC 10, 24 h): 62.50 µg/mL
MIC ([3]; ATCC 10, 24 h): 7.81 µg/mL
MBC (MFC) ([4]; ATCC 90, 24 h): 62.5 µg/mL
MIC ([4]; ATCC 90, 24 h): 62.5 µg/mL
MBC (MFC) ([5]; ATCC 28, 24 h): 31.25 µg/mL
MIC ([5]; ATCC 28, 24 h): 7.81 µg/mL
MIC ([7]; ATCC 25, 24 h): > 1000 µg/mL
MIC ([8]; ATCC 25, 24 h): > 1000 µg/mL
toxicity [9]: no significant toxicity
HC50 (concentration that lyses 50% of red blood cells) [10]: 14,246 µg/ml
time to kill all C. albicans (maximum fungicidal effect) [6]: 12 h
Interpretation [11, 22]: Synergy (synergism if FIC ≤ 0.5)
Interpretation [11, 23]: Indifference (indifference if > 1 FIC < 4.0)
Interpretation [11, 24]: Indifference (indifference if > 1 FIC < 4.0)
Interpretation [12, 22]: Synergy (synergism if FIC ≤ 0.5)
Interpretation [12, 23]: Indifference (indifference if > 1 FIC < 4.0)
Interpretation [12, 24]: Antagonist (antagonistic if FIC ≥ 4.0)
Interpretation [13, 22]: Synergy (synergism if FIC ≤ 0.5)
Interpretation [13, 23]: Indifference (indifference if > 1 FIC < 4.0)
Interpretation [13, 24]: Antagonist (antagonistic if FIC ≥ 4.0)
MIC ([14]; after treatment with Ergosterol (Erg)): 7.81 µg/mL
MIC ([14]; before treatment with Ergosterol (substance alone)): 7.81 µg/mL
MIC ([15]; SDB): 7.81 µg/mL
MIC ([15]; SDB + 10% serum (human)): 7.81 µg/mL
MIC ([15]; SDB + 20% serum (human)): 7.81 µg/mL
MIC ([15]; SDB + 30% serum (human)): 15.6 µg/mL
MIC ([15]; SDB + MgCl2 (1 mM)): 7.81 µg/mL
MIC ([15]; SDB + NaCl (150 mM)): 7.81 µg/mL
surface morphology change (FE-SEM) ([16]; after 2 h): shrinkages in cell-surface
surface morphology change (FE-SEM) ([16]; after 4 h): increase was seen in the amount of cell surface shrinkage and cell roughening
surface morphology change (FE-SEM) ([16]; after 6 h): blisters and surface pores on the cell surface were created

Penicillin [reference compound]
MIC ([7]; E. coli, mean of 3 independent tests): 31.25/NA µg/mL
MIC ([8]; S. aureus, mean of 3 independent tests): 0.45/NA µg/mL
